Assay results published in patent US20120015090A1, “READILY WATER-SOLUBLE MYRICITRIN COMPOSITION” (SAN-EI GEN F.F.I., INC., priority 2009, published 2012).

What was measured:
Type in all cases: physicochemical
[1] = Evaluation of preservation stability, presence or absence of deposits in acid and sugar solutions (Experiment Example 3); parameters: key: +: the presence of deposits; −: the absence of deposits; x: no dissolution in the acid and sugar solution; settings: 210 days
Method: MY and γ-CD were used in the 1:1 proportion (mole ratio) to prepare a powder composition (sample 1) according to the method of Example 1. […] Each solution was hot-packed in a 100-ml glass vial (93° C.). The drinks so prepared were allowed to cool, and placed under 50° C., room temperature (25±2° C.), and low-temperature (5° C.) conditions for 210 days. The presence or absence of deposits was then checked by visual inspection. […] The drinks so prepared were allowed to cool, and placed under 50° C., room temperature (25±2° C.), and low-temperature (5° C.) conditions for 210 days. The presence or absence of deposits was then observed. In the table, the symbol “+” means the presence of deposits, and “−” the absence of deposits. The symbol “x” means no dissolution in the acid and sugar solution.

[2] = Evaluation of the solubility of other flavonoids in water (Experiment Example 2)
Method: The solubility (mg/ml) of each composition in water in terms of the flavonoid was then determined according to the method of Experiment Example 1. The solubility (mg/ml) of the flavonoid itself in water was also determined as a control, and the solubility (fold) was calculated from the relative ratio of the two.

[3] = Evaluation of water solubility with α- and β-cyclodextrins (Reference Experiment Example)
Method: Evaluation of Water Solubility with α- and β-Cyclodextrins Instead of γ-CD, α-cyclodextrin (α-CD) and β-cyclodextrin (β-CD) (both from Nihon Shokuhin Kako Co., Ltd.) were used to prepare MY inclusions, and the solubility of the compositions in water was evaluated.
Specifically, an MY composition containing 3 moles of α-CD (Reference Sample 1), or an MY composition containing 3 moles of β-CD (Reference Sample 2) per mole of MY were prepared according to the method of Example 1, and the solubility of each composition in water was determined as an MY solubility (mg/ml) according to the method of Experiment Example 1. The solubility (mg/ml) of the MY itself was also determined as a control, and the solubility (fold) was calculated from the relative ratio of the two.

[4] = Evaluation of MY composition solubility in water (Experiment Example 1)
Method: The MY and γ-CD were used in the proportions (mole ratios) presented in Table 1, and […] different powdery MY compositions (Samples 1 to 22) were prepared according to the method of Example 1.
The powdery MY composition (Samples 1 to 22) or a control MY (MY itself) was added to water (20 ml) in a 100-ml Erlenmeyer flask while stirring. The samples were added until they could not be dissolved further, and formed deposits. Each solution was shaken (Bio-Shaker BR-3000LF, 160 rpm, amplitude=40 mm, Taitec Co., Ltd.) at 25° C. for 40 hours, and centrifuged at 9,000 rpm for 10 min to collect the supernatant. The supernatant was appropriately diluted with a 0.1% phosphoric acid aqueous solution, and absorbance (346 nm) was measured.
1) MY (50 mg) was accurately weighed, and dissolved in methanol to make the volume precisely 100 ml. 2) The solution was appropriately diluted with a 0.1% phosphoric acid aqueous solution to prepare MY solutions of 0.0001, 0.0005, 0.001, 0.005, and 0.01 mg/ml concentrations. 3) The absorbance of the standard solution at a wavelength of maximum absorption was measured with a spectrophotometer. 4) A standard curve was created based on the content of MY in the MY solution, and the measured absorbance value.

In the case of `C[C@H]1O[C@@H](Oc2c(-c3cc(O)c(O)c(O)c3)oc3cc(O)cc(O)c3c2=O)[C@@H](O)[C@@H](O)[C@@H]1O` [MY, myricitrin], the “presence or absence of deposits” value ([1]; pH 3, 50° C., flavonoid concentration 0.05%) is reported as “+”, the “presence or absence of deposits” value ([1]; pH 3, 50° C., flavonoid concentration 0.10%) is reported as “+” and the “presence or absence of deposits” value ([1]; pH 3, refrigerated (5° C.), flavonoid concentration 0.05%) is reported as “+”. For the same compound, the “presence or absence of deposits” value ([1]; pH 3, refrigerated (5° C.), flavonoid concentration 0.10%) was “+”, the “presence or absence of deposits” value ([1]; pH 3, room temperature, flavonoid concentration 0.05%) was “+” and the “presence or absence of deposits” value ([1]; pH 3, room temperature, flavonoid concentration 0.10%) was “+”. For the same compound, the “presence or absence of deposits” value ([1]; pH 6, 50° C., flavonoid concentration 0.05%) was “−”, the “presence or absence of deposits” value ([1]; pH 6, 50° C., flavonoid concentration 0.10%) was “−” and the “presence or absence of deposits” value ([1]; pH 6, refrigerated (5° C.), flavonoid concentration 0.05%) was “+”. The “presence or absence of deposits” value ([1]; pH 6, refrigerated (5° C.), flavonoid concentration 0.10%) was “+”, the “presence or absence of deposits” value ([1]; pH 6, room temperature, flavonoid concentration 0.05%) was “+” and the “presence or absence of deposits” value ([1]; pH 6, room temperature, flavonoid concentration 0.10%) was “+”. For the same compound, the “presence or absence of deposits” value ([1]; pH 9, 50° C., flavonoid concentration 0.05%) was “−”, the “presence or absence of deposits” value ([1]; pH 9, 50° C., flavonoid concentration 0.10%) was “−” and the “presence or absence of deposits” value ([1]; pH 9, refrigerated (5° C.), flavonoid concentration 0.05%) was “−”. The “presence or absence of deposits” value ([1]; pH 9, refrigerated (5° C.), flavonoid concentration 0.10%) was “−”, the “presence or absence of deposits” value ([1]; pH 9, room temperature, flavonoid concentration 0.05%) was “−” and the “presence or absence of deposits” value ([1]; pH 9, room temperature, flavonoid concentration 0.10%) was “−”. For the same compound, the “Solubility (fold) (in terms of flavonoids)” value ([2]; Flavonoid:γ-CD = 1:0 (mole ratio), flavonoid itself, reference) was 1 fold, the “Solubility (fold) (in terms of flavonoids)” value ([2]; Flavonoid:γ-CD = 1:1 (mole ratio)) was 157.8 fold and the “Solubility (fold) (in terms of flavonoids)” value ([2]; Flavonoid:γ-CD = 1:3 (mole ratio)) was 256.2 fold. The “Solubility (fold) (in terms of flavonoids)” value ([2]; Flavonoid:γ-CD = 1:5 (mole ratio)) was 187.4 fold, the “Solubility (fold) (in terms of flavonoids)” value ([2]; Flavonoid:γ-CD = 1:10 (mole ratio)) was 49.3 fold and the “Solubility (fold) (in terms of flavonoids)” value ([2]; Flavonoid:γ-CD = 1:15 (mole ratio)) was 59.9 fold. The “Solubility (fold) (in terms of flavonoids)” value ([2]; Flavonoid:γ-CD = 1:20 (mole ratio)) was 46.3 fold, the “Solubility (fold)” value ([3]; relative to MY alone = 1) was 1 fold and the “Solubility (in terms of myricitrin, mg/ml)” value ([3]; water, method of Experiment Example 1, MY:CD = 1:3 mole ratio) was 0.10 mg/mL. The “Solubility (fold)” value ([4]; relative to solubility of MY itself (non-inclusion) = 1, 25° C., 40 hours) was 1 fold and the “Solubility (in terms of myricitrin, mg/ml)” value ([4]; shaken at 25° C. for 40 hours, MY:γ-CD = 1:X per sample) was 0.12 mg/mL.
